Data published in patent publication US12258336B2, “Preparation of seimicarbazide-sensitive amine oxidase inhibitor and use thereof” (SHANGHAI ENNOVABIO PHARMACEUTICALS CO., LTD., priority 2018, dated 2025).
Read-outs that look alike come from different tables or passages of the source.

Molecular target: T1, SSAO/VAP-1 (Rattus norvegicus, UniProt O08590)
T1 construct: from tissue; host or cells: rat plasma, brain, retina, small intestine, lung, liver, kidney
T1 sequence (O08590 1-763): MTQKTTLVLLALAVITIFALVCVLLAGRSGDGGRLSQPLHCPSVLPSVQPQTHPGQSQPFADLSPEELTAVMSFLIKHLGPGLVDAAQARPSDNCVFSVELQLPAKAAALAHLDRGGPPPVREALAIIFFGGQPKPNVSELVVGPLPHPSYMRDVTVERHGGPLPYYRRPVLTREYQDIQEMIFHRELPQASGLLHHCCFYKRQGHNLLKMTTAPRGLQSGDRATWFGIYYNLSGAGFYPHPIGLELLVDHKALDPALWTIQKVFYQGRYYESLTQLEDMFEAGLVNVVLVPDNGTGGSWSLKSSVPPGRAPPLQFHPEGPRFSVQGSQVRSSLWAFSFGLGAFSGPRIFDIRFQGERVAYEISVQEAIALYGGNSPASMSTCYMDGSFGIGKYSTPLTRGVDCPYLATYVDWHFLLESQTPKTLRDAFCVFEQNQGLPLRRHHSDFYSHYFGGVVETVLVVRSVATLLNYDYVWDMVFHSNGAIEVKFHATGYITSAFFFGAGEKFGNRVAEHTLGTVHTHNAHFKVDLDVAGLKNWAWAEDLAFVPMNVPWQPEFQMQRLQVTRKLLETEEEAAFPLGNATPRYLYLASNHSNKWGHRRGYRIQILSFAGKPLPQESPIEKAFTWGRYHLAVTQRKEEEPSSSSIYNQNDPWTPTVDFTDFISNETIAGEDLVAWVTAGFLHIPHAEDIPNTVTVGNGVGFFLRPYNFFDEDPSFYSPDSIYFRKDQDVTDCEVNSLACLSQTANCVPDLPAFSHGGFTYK
Assay: Inhibitory activity on SSAO/VAP-1 in animal tissues after oral administration
Format: in vivo
Settings: 24 hours post single administration, mean ± SEM
Description: MAO-Glo Assay kit (Promega, V1402) was used to determine the activity of SSAO in animal tissues. After test compounds were adminstered to the animal, SSAO enzyme activity was calculated by measuring the activity of the monoamine oxidases in the animal tissue homogenate that was insensitive to MAO inhibitors Clogyline and Pargyline. The compounds were orally administered to rats at different doses, and same volume of vehicle was orally administered to control animals. Animal plasma, brain, retina, small intestine, lung, liver, and kidney were respectively collected 24 hours after administration (the animals were perfused with PBS before the collection of small intestine, lung, liver, and kidney) and stored in a −80° C. refrigerator until analysis. Each tissue was homogenized in tissue homogenate lysis buffer (20 mM HEPES, pH 7.4, 150 mM NaCl, 1 mM EDTA, 1 mM EGTA, 1% Triton X-100 and 1× Roche Complete protease inhibitor tablet). The homogenate was centrifuged at 12000 rpm at 4° C. for 30 minutes to remove tissue fragments. 5 μL of supernatant and 2 μL of mixture of Clogyline (10 μM) and Pargyline (10 μM) were incubated for 10 minutes at room temperature. Then 2 μL of substrate from MAO-Glo assay kit was added to the mixture, and reacted at room temperature for 60 minutes. Detection reagents were added to quench the reaction according to instructions. The fluorescein data was read by Biotek Neo2. The activity of monoamine oxidase in tissues that is not sensitive to MAO inhibitors was used to represent the activity of SSAO. Percentage of SSAO activity in administered animals was compared with that of control animals to calculate the compound inhibition rate.

[1] = brain, read-out: remaining SSAO activity percentage (SSAO activity %), Brain
[2] = plasma, read-out: remaining SSAO activity percentage (SSAO activity %), Plasma
[3] = retina, read-out: remaining SSAO activity percentage (SSAO activity %), Retina
[4] = kidney, read-out: remaining SSAO activity percentage (SSAO activity %), kidney
[5] = liver, read-out: remaining SSAO activity percentage (SSAO activity %), Liver
[6] = lung, read-out: remaining SSAO activity percentage (SSAO activity %), Lung
[7] = small intestine, read-out: remaining SSAO activity percentage (SSAO activity %), Small intestine

SMILES: COC1CC2CC1CN2c1ncc(OC/C(=C/F)CN)cn1 (stereo not shown) [Example 2]
- remaining activity at 0.6 mg/kg [1]: 49.1 ± 21.2%
- remaining activity at 0.6 mg/kg [2]: 24.3 ± 5.2%
- remaining activity at 0.6 mg/kg [3]: 28.7 ± 8.5%

SMILES: NC/C(=C\F)COc1cnc(N2CCC3(CC2)COC3)nc1 [Example 3]
- remaining activity at 1 mg/kg [1]: 55.6 ± 10.5%
- remaining activity at 1 mg/kg [2]: 15.2 ± 2.6%
- remaining activity at 1 mg/kg [3]: 8.9 ± 3.2%

SMILES: NC/C(=C\F)COc1cnc(N2CCN(C3COC3)CC2)nc1 [Example 4, (E)-3-fluoro-2-(((2-(4-(oxbutan-3-yl)piperazin-1-yl)pyrimidin-5-yl)oxo)methyl)prop-2-en-1-amine]
- remaining activity at 0.005 mg/kg [1]: 98.3 ± 25.4%
- remaining activity at 0.005 mg/kg [4]: 99.2 ± 4.1%
- remaining activity at 0.005 mg/kg [5]: 108 ± 33.5%
- remaining activity at 0.005 mg/kg [6]: 94.9 ± 17.2%
- remaining activity at 0.005 mg/kg [2]: 61.7 ± 8.2%
- remaining activity at 0.005 mg/kg [3]: 65 ± 14%
- remaining activity at 0.025 mg/kg [1]: 143 ± 68.3%
- remaining activity at 0.025 mg/kg [4]: 58.7 ± 12.1%
- remaining activity at 0.025 mg/kg [5]: 14.4 ± 8.1%
- remaining activity at 0.025 mg/kg [6]: 64 ± 20.3%
- remaining activity at 0.025 mg/kg [2]: 58.6 ± 4.2%
- remaining activity at 0.025 mg/kg [3]: 49.1 ± 7.1%
- remaining activity at 0.12 mg/kg [1]: 75.4 ± 7.4%
- remaining activity at 0.12 mg/kg [4]: 46.3 ± 3.5%
- remaining activity at 0.12 mg/kg [5]: 40.1 ± 8.2%
- remaining activity at 0.12 mg/kg [6]: 39.8 ± 11.3%
- remaining activity at 0.12 mg/kg [2]: 33.7 ± 1.9%
- remaining activity at 0.12 mg/kg [3]: 25.1 ± 5.3%
- remaining activity at 0.12 mg/kg [7]: 96.9 ± 21.7%
- remaining activity at 0.6 mg/kg [1]: 26.5 ± 11.8%
- remaining activity at 0.6 mg/kg [4]: 26.2 ± 10.1%
- remaining activity at 0.6 mg/kg [5]: 3 ± 7.6%
- remaining activity at 0.6 mg/kg [6]: 14.1 ± 3.8%
- remaining activity at 0.6 mg/kg [2]: 12.9 ± 2.2%
- remaining activity at 0.6 mg/kg [3]: 8 ± 1.2%
- remaining activity at 0.6 mg/kg [7]: 38.9 ± 3.2%
- remaining activity at 3 mg/kg [1]: 22.1 ± 7.7%
- remaining activity at 3 mg/kg [4]: 0.7 ± 1.8%
- remaining activity at 3 mg/kg [5]: 5.3 ± 3.2%
- remaining activity at 3 mg/kg [6]: 4.6 ± 2.5%
- remaining activity at 3 mg/kg [2]: 1.8 ± 0.2%
- remaining activity at 3 mg/kg [3]: 5.2 ± 2.4%
- remaining activity at 3 mg/kg [7]: 11.1 ± 4.4%
- remaining activity at 15 mg/kg [1]: 4 ± 1.7%
- remaining activity at 15 mg/kg [4]: 2.4 ± 1.3%
- remaining activity at 15 mg/kg [5]: -2.4 ± 5.4%
- remaining activity at 15 mg/kg [6]: 2.2 ± 0.2%
- remaining activity at 15 mg/kg [2]: 1.1 ± 0.4%
- remaining activity at 15 mg/kg [3]: 3 ± 2.2%
- remaining activity at 15 mg/kg [7]: 1.1 ± 0.9%

SMILES: CC1(C)CN(c2ncc(OC/C(=C/F)CN)cn2)CCN1C1COC1 [Example 10]
- remaining activity at 0.6 mg/kg [1]: 27.3 ± 1.8%
- remaining activity at 0.6 mg/kg [2]: 5.8 ± 2.1%
- remaining activity at 0.6 mg/kg [3]: 8 ± 0.8%

SMILES: COC1CC2CCC(C1)N2c1ncc(OC/C(=C/F)CN)cn1 (stereo not shown) [Example 12]
- remaining activity at 1 mg/kg [1]: 63.1 ± 12.1%
- remaining activity at 1 mg/kg [2]: 25.6 ± 3%
- remaining activity at 1 mg/kg [3]: 24.6 ± 3.5%
